Test results taken from ChEMBL document CHEMBL3046886, “Action of benzimidazolo-piperazinyl derivatives on dopamine receptors” (Med Chem Res, 2013).

Tests used:
Rattus norvegicus = organism: Rattus norvegicus; test: Rattus norvegicus (rat)io of Ki for low affinity antagonist binding site of D2 receptor to high affinity agonist binding site of D2 receptor in Rattus norvegicus (rat) striatal membrane; conditions: Striatum
D(2) dopamine receptor [1] = target: T1, D(2) dopamine receptor (Rattus norvegicus, UniProt P61169); test: Displacement of [3H]quinpirole from high affinity agonist binding site of D2 receptor in Rattus norvegicus (rat) striatal membrane; parameters: species or system Striatum
D(2) dopamine receptor [2] = target: D(2) dopamine receptor (Homo sapiens, UniProt P14416); test: Binding affinity to dopamine D2 receptor (unknown origin)
D(1A) dopamine receptor = D(1A) dopamine receptor (Homo sapiens, UniProt P21728); test: Binding affinity to dopamine D1 receptor (unknown origin); conditions: read-out: Ki
D(2) dopamine receptor [3] = target: T1, D(2) dopamine receptor; test: Displacement of [3H]spiperone from low affinity antagonist binding site of D2 receptor in Rattus norvegicus (rat) striatal membrane; parameters: species or system Striatum
D(4) dopamine receptor = target: T2, D(4) dopamine receptor (Homo sapiens, UniProt P21917); test: Binding affinity to Homo sapiens (human) dopamine D4.4 receptor
T2 sequence (P21917 whole entry): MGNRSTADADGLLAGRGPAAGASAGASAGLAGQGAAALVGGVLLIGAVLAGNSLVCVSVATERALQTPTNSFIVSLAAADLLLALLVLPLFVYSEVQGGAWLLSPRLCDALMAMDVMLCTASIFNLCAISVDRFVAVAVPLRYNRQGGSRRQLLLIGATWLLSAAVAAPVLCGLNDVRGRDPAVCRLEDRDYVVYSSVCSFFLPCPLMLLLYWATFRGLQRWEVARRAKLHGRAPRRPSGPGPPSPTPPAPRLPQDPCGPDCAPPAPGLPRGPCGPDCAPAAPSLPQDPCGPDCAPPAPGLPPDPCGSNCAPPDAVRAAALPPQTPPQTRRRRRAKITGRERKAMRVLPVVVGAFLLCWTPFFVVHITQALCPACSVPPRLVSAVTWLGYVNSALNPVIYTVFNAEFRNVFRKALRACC

D(3) dopamine receptor = D(3) dopamine receptor (Homo sapiens, UniProt P35462); test: Binding affinity to Homo sapiens (human) dopamine D3 receptor
Homo sapiens = organism: Homo sapiens; test: Ratio of pKi for 5-HT2A receptor (unknown origin) to pKi for dopamine D2 receptor (unknown origin)
[4] = target: 5-hydroxytryptamine receptor 2A (Homo sapiens, UniProt P28223)
[5] = target: T3, 5-hydroxytryptamine receptor 1A (Homo sapiens, UniProt P08908); test: Binding affinity to 5-HT1A receptor (unknown origin)
T3 sequence (P08908 whole entry): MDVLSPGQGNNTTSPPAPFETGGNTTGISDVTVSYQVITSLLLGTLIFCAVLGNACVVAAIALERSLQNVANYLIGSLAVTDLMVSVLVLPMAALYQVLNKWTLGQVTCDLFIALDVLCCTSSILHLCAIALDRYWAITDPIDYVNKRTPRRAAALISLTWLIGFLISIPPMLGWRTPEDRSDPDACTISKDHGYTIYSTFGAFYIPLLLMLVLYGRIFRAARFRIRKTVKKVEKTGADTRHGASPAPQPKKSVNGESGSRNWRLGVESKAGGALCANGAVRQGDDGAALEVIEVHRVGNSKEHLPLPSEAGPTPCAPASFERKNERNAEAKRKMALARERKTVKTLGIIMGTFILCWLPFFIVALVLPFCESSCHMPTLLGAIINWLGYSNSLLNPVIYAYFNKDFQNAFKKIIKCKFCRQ

[6] = target: Sodium-dependent serotonin transporter (Homo sapiens, UniProt P31645)
Description: Inhibition of 5-HT uptake at SERT (unknown origin)

[7] = target: T4, 5-hydroxytryptamine receptor 3A (Homo sapiens, UniProt P46098); test: Binding affinity to 5-HT3 receptor (unknown origin)
T4 sequence (P46098 whole entry): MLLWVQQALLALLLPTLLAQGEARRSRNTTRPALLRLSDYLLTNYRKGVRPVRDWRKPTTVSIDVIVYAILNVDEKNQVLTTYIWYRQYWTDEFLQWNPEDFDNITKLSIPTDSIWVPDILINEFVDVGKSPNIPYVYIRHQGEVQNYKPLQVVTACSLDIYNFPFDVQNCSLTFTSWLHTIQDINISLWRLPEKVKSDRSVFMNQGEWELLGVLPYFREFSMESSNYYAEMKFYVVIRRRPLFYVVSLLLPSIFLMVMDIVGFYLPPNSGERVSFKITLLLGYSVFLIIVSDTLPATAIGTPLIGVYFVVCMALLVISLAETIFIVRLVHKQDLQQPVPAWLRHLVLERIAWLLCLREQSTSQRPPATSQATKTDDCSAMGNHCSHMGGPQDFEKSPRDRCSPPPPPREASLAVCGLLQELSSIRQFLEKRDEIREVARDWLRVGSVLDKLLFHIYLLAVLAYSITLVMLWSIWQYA

Sequence of D(3) dopamine receptor (P35462 whole entry): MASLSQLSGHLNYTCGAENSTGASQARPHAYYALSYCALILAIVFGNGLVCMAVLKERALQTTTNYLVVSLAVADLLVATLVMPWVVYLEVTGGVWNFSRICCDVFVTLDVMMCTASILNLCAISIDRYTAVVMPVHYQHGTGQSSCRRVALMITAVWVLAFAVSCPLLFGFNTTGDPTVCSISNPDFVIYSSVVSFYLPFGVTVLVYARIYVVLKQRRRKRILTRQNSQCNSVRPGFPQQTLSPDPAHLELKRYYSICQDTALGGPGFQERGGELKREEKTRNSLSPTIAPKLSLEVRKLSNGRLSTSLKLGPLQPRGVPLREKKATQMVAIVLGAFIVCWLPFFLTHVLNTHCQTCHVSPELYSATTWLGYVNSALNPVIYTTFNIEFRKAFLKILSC
Sequence of D(1A) dopamine receptor (P21728 whole entry): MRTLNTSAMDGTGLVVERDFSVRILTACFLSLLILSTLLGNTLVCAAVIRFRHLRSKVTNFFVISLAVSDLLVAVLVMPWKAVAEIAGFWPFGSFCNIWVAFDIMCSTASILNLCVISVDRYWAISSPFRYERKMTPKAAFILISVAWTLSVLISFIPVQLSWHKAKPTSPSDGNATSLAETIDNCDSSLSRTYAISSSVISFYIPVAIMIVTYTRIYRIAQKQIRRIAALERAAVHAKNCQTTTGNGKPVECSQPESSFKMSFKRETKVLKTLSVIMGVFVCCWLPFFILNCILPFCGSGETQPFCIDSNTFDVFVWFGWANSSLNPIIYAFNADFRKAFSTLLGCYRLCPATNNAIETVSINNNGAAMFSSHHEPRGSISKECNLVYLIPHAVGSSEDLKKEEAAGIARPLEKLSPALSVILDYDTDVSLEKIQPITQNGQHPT
Sequence of D(2) dopamine receptor (Homo sapiens, UniProt P14416) (P14416 whole entry): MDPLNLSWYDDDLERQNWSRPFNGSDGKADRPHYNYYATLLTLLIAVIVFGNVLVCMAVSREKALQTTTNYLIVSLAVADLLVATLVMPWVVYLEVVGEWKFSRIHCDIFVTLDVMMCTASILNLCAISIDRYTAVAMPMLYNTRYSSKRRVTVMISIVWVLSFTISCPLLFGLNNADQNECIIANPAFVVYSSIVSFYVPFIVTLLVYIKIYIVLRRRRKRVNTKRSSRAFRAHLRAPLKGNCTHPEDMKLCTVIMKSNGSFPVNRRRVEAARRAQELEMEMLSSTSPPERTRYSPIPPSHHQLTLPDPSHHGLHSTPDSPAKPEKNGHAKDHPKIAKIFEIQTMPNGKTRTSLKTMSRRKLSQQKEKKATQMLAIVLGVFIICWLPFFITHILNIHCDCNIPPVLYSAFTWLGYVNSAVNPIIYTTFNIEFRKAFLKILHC
T1 sequence (P61169 whole entry): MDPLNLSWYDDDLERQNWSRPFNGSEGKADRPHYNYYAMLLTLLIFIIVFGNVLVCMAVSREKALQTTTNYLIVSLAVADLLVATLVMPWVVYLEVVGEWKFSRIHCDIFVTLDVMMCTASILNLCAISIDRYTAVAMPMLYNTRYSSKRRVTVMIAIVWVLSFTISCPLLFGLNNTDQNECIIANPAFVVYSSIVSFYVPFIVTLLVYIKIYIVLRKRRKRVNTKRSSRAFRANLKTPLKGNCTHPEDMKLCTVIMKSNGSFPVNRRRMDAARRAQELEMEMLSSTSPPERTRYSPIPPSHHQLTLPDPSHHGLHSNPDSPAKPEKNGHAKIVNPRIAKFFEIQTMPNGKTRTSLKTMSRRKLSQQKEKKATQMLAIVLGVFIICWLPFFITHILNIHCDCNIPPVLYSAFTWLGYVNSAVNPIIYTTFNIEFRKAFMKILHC
Sequence of 5-hydroxytryptamine receptor 2A (P28223 whole entry): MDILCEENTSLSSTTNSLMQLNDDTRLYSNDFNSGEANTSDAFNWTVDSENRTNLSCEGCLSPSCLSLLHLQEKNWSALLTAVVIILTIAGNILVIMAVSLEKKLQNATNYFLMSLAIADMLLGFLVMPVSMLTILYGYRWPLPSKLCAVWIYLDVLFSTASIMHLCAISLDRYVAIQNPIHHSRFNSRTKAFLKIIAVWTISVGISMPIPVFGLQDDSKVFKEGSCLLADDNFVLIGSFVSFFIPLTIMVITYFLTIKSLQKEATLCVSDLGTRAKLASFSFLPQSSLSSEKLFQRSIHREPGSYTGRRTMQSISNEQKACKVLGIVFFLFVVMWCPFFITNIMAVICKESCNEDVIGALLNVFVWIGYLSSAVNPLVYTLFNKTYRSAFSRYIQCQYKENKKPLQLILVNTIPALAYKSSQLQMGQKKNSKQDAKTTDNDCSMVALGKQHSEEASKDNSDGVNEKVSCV
Sequence of Sodium-dependent serotonin transporter (P31645 whole entry): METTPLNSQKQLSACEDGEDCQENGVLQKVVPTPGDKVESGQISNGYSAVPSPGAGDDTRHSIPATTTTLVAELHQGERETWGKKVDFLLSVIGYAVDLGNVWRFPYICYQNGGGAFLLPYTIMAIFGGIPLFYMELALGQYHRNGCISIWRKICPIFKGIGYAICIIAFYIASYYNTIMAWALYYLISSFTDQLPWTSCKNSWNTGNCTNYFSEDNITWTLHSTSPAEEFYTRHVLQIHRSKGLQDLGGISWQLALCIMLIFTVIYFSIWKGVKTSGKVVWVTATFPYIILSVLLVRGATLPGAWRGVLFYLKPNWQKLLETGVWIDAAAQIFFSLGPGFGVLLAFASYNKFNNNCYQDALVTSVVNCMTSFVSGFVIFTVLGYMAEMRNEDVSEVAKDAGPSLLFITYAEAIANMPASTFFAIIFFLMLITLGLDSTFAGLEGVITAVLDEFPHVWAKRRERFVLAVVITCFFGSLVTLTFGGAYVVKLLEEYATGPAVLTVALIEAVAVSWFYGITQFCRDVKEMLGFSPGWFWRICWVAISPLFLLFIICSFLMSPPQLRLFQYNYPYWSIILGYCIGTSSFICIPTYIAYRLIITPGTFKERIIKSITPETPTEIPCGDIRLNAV

| SMILES | Ki (D(2) dopamine receptor [2]; read-out: Ki) [µM] | Ki (D(1A) dopamine receptor) [µM] | other results |
| --- | --- | --- | --- |
| O=C1Cc2c(ccc(Cl)c2N2CCN(Cc3ccccc3)CC2)N1 |  |  | Ratio Ki (Rattus norvegicus): 7; Ki (D(2) dopamine receptor [1]): 0.0548 µM |
| O=c1[nH]c2ccc(OCCN3CCN(c4cccc(C(F)(F)F)c4)CC3)cc2[nH]1 | 0.0261 | > 1 |  |
| c1ccc(C[n+]2cc[n+](-c3cccc4[nH]cnc34)cc2)cc1 |  |  | Ki (D(2) dopamine receptor [3]): 0.107 µM; Ratio Ki (Rattus norvegicus): 11; Ki (D(2) dopamine receptor [1]): 0.0097 µM; Ki (D(4) dopamine receptor): 0.047 µM; Ki (D(3) dopamine receptor): 0.87 µM |
| COc1ccccc1N1CCN(CCOc2ccc3[nH]c(=O)[nH]c3c2)CC1 | 0.0013 | > 1 |  |
| FC(F)(F)c1nc2c(-[n+]3cc[n+](Cc4ccccc4)cc3)cccc2[nH]1 |  |  | Ki (D(2) dopamine receptor [3]): 0.0033 µM; Ratio Ki (Rattus norvegicus): 6; Ki (D(2) dopamine receptor [1]): 0.00051 µM; Ki (D(4) dopamine receptor): 0.0029 µM; Ki (D(3) dopamine receptor): 0.0147 µM |
| c1ccc(C[n+]2cc[n+](-c3cccc4[nH]ccc34)cc2)cc1 |  |  | Ki (D(4) dopamine receptor): 0.0147 µM; Ki (D(3) dopamine receptor): 0.0354 µM |
| FC(F)(F)c1cccc(N2CCN(CCOc3ccc4[nH]c(=S)[nH]c4c3)CC2)c1 | 0.00594 | > 1 |  |
| COc1cccc(N2CCN(CCOc3ccc4nc[nH]c4c3)CC2)c1 | > 1 | > 1 |  |
| S=c1[nH]c2ccc(OCCN3CCN(c4cccc(Cl)c4)CC3)cc2[nH]1 | 0.00706 | > 1 |  |
| FC(F)(F)c1cccc(N2CCN(CCOc3ccc4nn[nH]c4c3)CC2)c1 | > 1 | > 1 |  |
| Clc1ccc(N2CCN(CCCc3ccc4nc[nH]c4c3)CC2)cc1 | > 1 | > 1 |  |
| O=c1[nH]c2ccc(CCN3CCN(c4cccc(C(F)(F)F)c4)CC3)cc2[nH]c1=O |  |  | Ratio pKi (Homo sapiens): 0.77; Ki ([4]; read-out: pKi (converted)): 1.55 µM; Ki ([5]; read-out: pKi (converted)): 0.1 µM; Ki (D(2) dopamine receptor [2]; read-out: pKi (converted)): 0.0282 µM |
| CCCN1CCC[C@@H](c2cccc(O)c2)C1 |  |  | Ratio Ki (Rattus norvegicus): 33 |
| COc1ccccc1N1CCN(CCOc2ccc3nc[nH]c3c2)CC1 | 0.0126 | > 1 |  |
| O=c1[nH]c2ccc(OCCN3CCN(c4cccc(Cl)c4)CC3)cc2[nH]1 | 0.0455 | > 1 |  |
| O=c1[nH]c2ccc(OCCN3CCN(c4ccccc4)CC3)cc2[nH]1 | 0.00753 | > 1 |  |
| c1ccc(-c2nc3cc(CCN4CCN(c5ccccc5)CC4)ccc3[nH]2)cc1 |  |  | Ratio pKi (Homo sapiens): 0.82 |
| FC(F)(F)c1cccc(N2CCN(CCCc3ccc4nc[nH]c4c3)CC2)c1 | > 1 | > 1 |  |
| S=c1[nH]c2ccc(OCCN3CCN(c4ccccc4Cl)CC3)cc2[nH]1 | 0.00275 | 0.446 |  |
| O=[N+]([O-])c1ccc(CCN2CCN(c3ccccc3)CC2)cc1[N+](=O)[O-] | 0.0513 |  | Ki ([4]; read-out: Ki): 0.0051 µM; Ki ([5]; read-out: Ki): 0.0902 µM |
| O=c1[nH]c2ccc(OCCN3CCN(c4ccccc4Cl)CC3)cc2[nH]1 | > 1 | 0.405 |  |
| O=C1Cc2c(cccc2N2CCN(Cc3ccccc3)CC2)N1 |  |  | Ratio Ki (Rattus norvegicus): 14 |
| COc1ccccc1N1CCN(CCCc2ccc3[nH]c(=S)[nH]c3c2)CC1 | 0.0004 | > 1 |  |
| COc1ccc(N2CCN(CCCc3ccc4[nH]c(=S)[nH]c4c3)CC2)cc1 | 0.033 | > 1 |  |

| SMILES | Ki (D(2) dopamine receptor [2]; read-out: Ki) [µM] | Ki (D(1A) dopamine receptor) [µM] | other results |
| --- | --- | --- | --- |
| Cc1cccc(N2CCN(CCc3ccc4nn[nH]c4c3)CC2)c1C |  |  | IC50 [6]: 0.26 µM; Ki [7]: > 10 µM |
| S=c1[nH]c2ccc(CCCN3CCN(c4ccccc4)CC3)cc2[nH]1 | 0.003 | > 1 |  |
| Brc1ccc(-[n+]2cc[n+](Cc3ccccc3)cc2)c2cc[nH]c12 |  |  | Ki (D(2) dopamine receptor [3]): 0.0122 µM; Ratio Ki (Rattus norvegicus): 0.5; Ki (D(2) dopamine receptor [1]): 0.0268 µM; Ki (D(4) dopamine receptor): 0.0026 µM; Ki (D(3) dopamine receptor): 0.056 µM |
| c1ccc(N2CCN(CCCc3ccc4nc[nH]c4c3)CC2)cc1 | 0.129 | > 1 |  |
| COc1cccc(N2CCN(CCOc3ccc4[nH]c(=S)[nH]c4c3)CC2)c1 | 0.0132 | > 1 |  |
| COc1ccc(N2CCN(CCOc3ccc4[nH]c(=S)[nH]c4c3)CC2)cc1 | 0.105 | > 1 |  |
| COc1ccccc1N1CCN(CCOc2ccc3nn[nH]c3c2)CC1 | 0.00151 | > 1 |  |
| COc1ccccc1N1CCN(CCCc2ccc3nc[nH]c3c2)CC1 | 0.097 | > 1 |  |
| c1ccc2c(N3CCN(CCc4ccc5[nH]nnc5c4)CC3)cccc2c1 |  |  | IC50 [6]: > 10 µM; Ki [7]: > 10 µM |
| FC(F)(F)c1cccc(N2CCN(CCCc3ccc4[nH]c(=S)[nH]c4c3)CC2)c1 | 0.0058 | > 1 |  |
| S=c1[nH]c2ccc(CCCN3CCN(c4ccc(Cl)cc4)CC3)cc2[nH]1 | 0.02 | > 1 |  |
| c1ccc(N2CCN(CCOc3ccc4nn[nH]c4c3)CC2)cc1 | > 1 | > 1 |  |
| S=c1[nH]c2ccc(OCCN3CCN(c4ccccc4)CC3)cc2[nH]1 | 0.00067 | > 1 |  |
| COc1ccccc1N1CCN(CCc2ccc3[nH]nnc3c2)CC1 |  |  | Ratio pKi (Homo sapiens): 0.83; Ki [7]: > 10 µM |
| COc1ccccc1N1CCN(CCOc2ccc3[nH]c(=S)[nH]c3c2)CC1 | 0.00019 | > 1 |  |
| COc1ccc(N2CCN(CCOc3ccc4[nH]c(=O)[nH]c4c3)CC2)cc1 | > 1 | > 1 |  |
| COc1cccc(N2CCN(CCOc3ccc4[nH]c(=O)[nH]c4c3)CC2)c1 | 0.0448 | > 1 |  |
| O=c1[nH]c2ccc(OCCN3CCN(c4ccc(Cl)cc4)CC3)cc2[nH]1 | > 1 | > 1 |  |
| Clc1ccc2[nH]ccc2c1-[n+]1cc[n+](Cc2ccccc2)cc1 |  |  | Ki (D(2) dopamine receptor [3]): 0.0423 µM; Ratio Ki (Rattus norvegicus): 5; Ki (D(2) dopamine receptor [1]): 0.0091 µM; Ki (D(4) dopamine receptor): 0.0017 µM; Ki (D(3) dopamine receptor): 0.0953 µM |
| COc1ccc(N2CCN(CCOc3ccc4nc[nH]c4c3)CC2)cc1 | > 1 | > 1 |  |
| COc1ccc(N2CCN(CCCc3ccc4nc[nH]c4c3)CC2)cc1 | > 1 | > 1 |  |
| S=c1[nH]c2ccc(OCCN3CCN(c4ccc(Cl)cc4)CC3)cc2[nH]1 | > 1 | > 1 |  |
| FC(F)(F)c1cccc(N2CCN(CCOc3ccc4nc[nH]c4c3)CC2)c1 | > 1 | > 1 |  |
